Holding throughout (type): cell-based
Test [1] has as its system T-Rex 293 cell line SC3 cells having increased expression of androgen receptor protein. Description: Cellular growth inhibition, T-Rex 293 SC3 cells with doxycycline (increased androgen receptor expression). The conditions noted are these: with 10 ng/mL doxycycline (increased androgen receptor), 72 hours, CellTiter-Glo 2.0. Put shortly: (§1)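 Doxycycline (10 ng/mL) was either included or omitted to toggle wild-type androgen receptor expression in SC3 cells, a T-Rex 293 clone, grown in stripped-serum, phenol red-free medium. After 72 hours with compound, viable cells were quantified by CellTiter-Glo 2.0.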

Test [2] concerns T-Rex 293 cell line SC3 cells lacking increased expression of androgen receptor protein. Description: Cellular growth inhibition, T-Rex 293 SC3 cells without doxycycline. Conditions: not exposed to doxycycline, 72 hours, CellTiter-Glo 2.0. Put shortly:
as §1

Test [3] deals with T-Rex 293 cell line SC cells having increased expression of progesterone receptor isoform B protein. Description: Cellular growth inhibition, T-Rex 293 SC cells with doxycycline (increased progesterone receptor isoform B expression). The conditions noted are these: with 10 ng/mL doxycycline (increased progesterone receptor isoform B), 72 hours, CellTiter-Glo 2.0. Here is the method:
(§2) The following types of cells were prepared for this experiment: (i) a T-Rex 293 cell line having increased expression of progesterone receptor isoform B protein due to exposure to doxycycline and (ii) a T-Rex 293 cell line lacking increased expression of progesterone receptor isoform B protein. Ability of the test compounds to inhibit proliferation of the foregoing cell types was evaluated according to the procedures set forth below.
(§3) The doxycycline-inducible progesterone receptor isoform B protein expressing cell line was established using the following protocol: T-Rex 293 cells were purchased from Invitrogen (Cat #R71007) and transfected using Lipofectamine 2000 with the wild-type progesterone receptor B protein sequence cloned into the pcDNA4/TO vector. Transfected cells were selected using 400 μg/mL Zeocin (Invitrogen Cat #R25001). Following selection, single clones were raised and maintained in Dulbecco's Modified Eagle Medium (DMEM) supplemented with 10% w/w Tetracycline-free fetal bovine serum (FBS) and 250 μg/mL Zeocin. Clones were analyzed for expression of progesterone receptor isoform B protein in the presence and absence of 10 ng/mL doxycycline (Sigma Cat #D9891), and a single doxycycline-inducible clone (hereinafter “SC”) was selected for use in downstream assays.
(§4) The SC cells were seeded on poly-D-lysine coated, black clear-bottom 384-well plates at 2500/well, in 25 μL Phenol Red Free Dulbecco's Modified Eagle Medium (DMEM) supplemented with 10% w/w charcoal-dextran treated fetal bovine serum (FBS) and 1% w/w pen-strep, with or without 10 ng/mL doxycycline. Pen-Strep is a commercially available mixture of penicillin G and streptomycin, which is used in mammalian cell culture media to prevent bacterial contamination. Phenol Red Free Dulbecco's Modified Eagle Medium (DMEM) supplemented with 10% w/w charcoal-dextran treated fetal bovine serum (FBS) and 1% w/w pen-strep, with or without 10 ng/mL doxycycline is herein referred to as Treatment Medium. Following seeding of cells in the plates, the plates were spun at 300×g for 30 seconds, then equilibrated to room temperature for 30 minutes, and then deposited in a humidified tissue culture incubator maintained at 37° C. with 5% CO2.
(§5) At 24 hours after seeding of the cells, dilutions of test compound were prepared in DMSO and dissolved in Treatment Medium, to achieve a final DMSO concentration of 0.5% w/w, thereby providing the Test Compound Solution. A 25 μL aliquot of the Test Compound Solution was added to cells in the well plates. An equal volume of a solution containing DMSO and Treatment Medium was used as a negative control. Following treatment of cells with Test Compound Solution or said equal volume of a solution containing DMSO and Treatment Medium, the plates were spun at 300×g for 30 seconds, and then left in an incubator for 72 hours.
(§6) At the end of the treatment duration, cell viability was quantified with CellTiter-Glo 2.0 reagent (Promega Cat #G9243). For this purpose, plates were equilibrated to room temperature for 30 minutes, and then 25 μL of CellTiter-Glo 2.0 reagent was added to cells in the plate wells. Plates were then agitated on a shaker for two minutes at 500 rpm and subsequently incubated at room temperature for 10 minutes. Following incubation, the plates were spun at 3000×g for 30 seconds, then sealed with an optical adhesive cover, and luminescence readings were measured with an EnVision Plate Reader (Perkin Elmer).
(§7) Data was normalized using zero luminescence for baseline. A four-parameter non-linear regression curve fit was applied to dose-response data in GraphPad Prism data analysis software to determine the half-maximal growth inhibitory concentration (GI50) for each test compound.

Test [4] relates to T-Rex 293 cell line SC cells lacking increased expression of progesterone receptor isoform B protein. Description: Cellular growth inhibition, T-Rex 293 SC cells without doxycycline. The conditions noted are these: not exposed to doxycycline, 72 hours, CellTiter-Glo 2.0. The protocol:
as §2, §3, §4, §5, §6, §7

In a further test the test system is VCaP cells. Description: Cellular growth inhibition assay for VCaP cells. The conditions noted are these: Homo sapiens, 72 hours, CellTiter-Glo 2.0.
In the next test the test system is T47D cells. Briefly: Cellular growth inhibition assay for T47D cells. The conditions noted are these: Homo sapiens, 72 hours, CellTiter-Glo 2.0. Put shortly: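 Growth inhibition as GI50, fitted with four parameters to CellTiter-Glo luminescence after 72 h of compound exposure (0.5% DMSO). Cells were T47D, grown in insulin-supplemented (0.2 units/mL) DMEM with 10% FBS and treated one day post-seeding.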

Consider `CCc1cnn2c(NCc3ccc(OCCOCCOCCN(C)c4ncc(C(=O)N[C@H]5C(C)(C)[C@H](Oc6ccc(C#N)c(Cl)c6)C5(C)C)cn4)nc3)cc(N3CCCC[C@H]3CCO)nc12` [Compound I-2, N-((1r,3r)-3-(3-chloro-4-cyanophenoxy)-2,2,4,4-tetra-methylcyclobutyl)-2-((2-(2-(2-((5-(((3-ethyl-5-((S)-2-(2-hydroxyethyl)piperidin-1-yl)pyrazolo[1,5-a]pyrimidin-7-yl)amino)methyl)pyridin-2-yl)oxy)ethoxy)ethoxy)ethyl)(methyl)amino)pyrimidine-5-carboxamide], for which the GI50 is 100 to 1000 nM in test [1], 100 to 1000 nM in test [2], below 500 nM in test [3] and below 500 nM in test [4].

Consider `CCc1cnn2c(NCc3ccc(OCCOCCOCCOCCOCCOCCOCCOC4CCN(c5ncc(C(=O)N[C@H]6C(C)(C)[C@H](Oc7ccc(C#N)c(Cl)c7)C6(C)C)cn5)CC4)nc3)cc(N3CCCC[C@H]3CCO)nc12` [Compound I-10], for which the GI50 is below 100 nM in test [1]; 100 to 1000 nM in test [2]; below 100 nM in the test with VCaP cells; below 500 nM in test [3]; below 500 nM in test [4].

Take `CC1(C)[C@H](NC(=O)c2cnc(N3CCC(OCCOCCOCCNS(=O)(=O)c4ccc(Nc5ncc(Br)c(Nc6cccc(F)c6C(N)=O)n5)cc4)CC3)nc2)C(C)(C)[C@H]1Oc1ccc(C#N)c(Cl)c1` [Compound I-14]: the GI50 in test [1] is above 3500 nM; in test [2] it was above 3500 nM; in test [3] it was above 3000 nM; in test [4] it was above 3000 nM; with T47D cells, 500 to 1500 nM.

As to `CCc1cnn2c(NCc3ccc(OCCCCOC4CCN(c5ncc(C(=O)N[C@H]6C(C)(C)[C@H](Oc7ccc(C#N)c(Cl)c7)C6(C)C)cn5)CC4)nc3)cc(N3CCCC[C@H]3CCO)nc12` [Compound I-27], the GI50 in test [1] is 100 to 1000 nM; in test [2], above 3500 nM; in test [3], below 500 nM; in test [4] it was above 3000 nM.

These data come from patent US20260159520A1, “HETEROBIFUNCTIONAL COMPOUNDS AND METHODS OF TREATING DISEASE” (Halda Therapeutics OpCo, Inc., priority 2022, published 2026).
